pKd: −log10 of the molar value. “And” between values parts separate entries of the source, which are not always exact repeats. Identical values can stand only once.
Target: PaPepA (Pseudomonas aeruginosa, UniProt Q02RY8)
Assay: Room-temperature EPR spectroscopy Mn2+ titration
Set-up: GG stays after cleavage) (N); made in house; host or cells: E. coli BL21(DE3)
Details: 20 μM PaPepA, 1:0.9 enzyme:Mn^2+ binding model, to be taken as upper limit
Protocol: EPR spectra were obtained with a Bruker EMX 10/12 spectrometer running Xenon software and equipped with an ELEXSYS Super Hi-Q resonator at an operating frequency of ∼9.5 GHz with a 100 kHz modulation. EPR spectra for Mn titrations were recorded at room temperature using a 160 mT field sweep centered at 350 mT, a time constant of 40.96 ms, a conversion time of 133.53 ms, and a 480-point resolution. An attenuation of 10 dB (20.7 mW power) and a modulation amplitude of 1 mT were used. Spectra were phase- and background-corrected, and the double integral was obtained using the Xenon software.
For acquiring EPR spectra, 20 μM PaPepA was used in 100 mM HEPES pH 7.5, 50 mM KCl with increasing concentration of MnCl2: 0–30 μM in steps of 2, 35, and 40 μM (18 steps). For the calibration curve, the same buffer and steps were employed in the absence of enzyme.

Sequence of PaPepA (Q02RY8 whole entry): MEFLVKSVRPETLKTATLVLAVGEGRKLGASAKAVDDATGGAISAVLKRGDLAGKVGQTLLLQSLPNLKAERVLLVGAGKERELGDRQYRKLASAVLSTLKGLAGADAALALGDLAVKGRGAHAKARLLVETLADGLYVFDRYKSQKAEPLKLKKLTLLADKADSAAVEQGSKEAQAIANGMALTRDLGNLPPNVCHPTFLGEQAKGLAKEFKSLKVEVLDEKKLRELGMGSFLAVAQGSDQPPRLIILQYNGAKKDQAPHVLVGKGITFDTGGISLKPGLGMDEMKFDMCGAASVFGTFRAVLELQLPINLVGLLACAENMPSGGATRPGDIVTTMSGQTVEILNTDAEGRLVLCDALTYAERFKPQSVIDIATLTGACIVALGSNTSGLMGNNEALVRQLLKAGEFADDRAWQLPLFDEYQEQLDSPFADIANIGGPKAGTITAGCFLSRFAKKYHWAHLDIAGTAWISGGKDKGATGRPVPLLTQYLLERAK

[Mn+2] [Mn^2+]
pKd: 6.76 and ~6.76

Reference: publication PMC10666288, “Unveiling the Catalytic Mechanism of a Processive Metalloaminopeptidase” (Biochemistry, 2023)
